Experimental data reported in patent US10238677B2, “Treatment of filarial diseases” (AbbVie Inc., priority 2015, dated 2019).
“And” between values parts separate entries of the source, which are not always exact repeats. Identical values can stand only once.

Experiments:
[1] = test system: Wolbachia in Brugia malayi larvae; experiment: Larval Brugia malayi mouse model, Wolbachia wsp qPCR; assay type: in vivo, BALB/c IL4Rα−/− mice; conditions: vs median vehicle control
Excerpt: […] At 14 days post-infection, larvae were recovered from the peritoneal cavity, counted, and length measured. Genomic DNA was extracted from individual worms (10/group) and quantification of the Wolbachia surface protein (wBm-wsp) gene copy numbers performed by quantitative PCR.
Treatment dose (mg/kg) shown in parentheses and duration stated in days (d). Abbreviations: DOX (doxycycline), bid (twice daily), qd (once daily), PO (oral), […]. Data in Table 2 are expressed as a reduction in Wolbachia load in comparison to the vehicle control group.
[…] […] Treatment dose (mg/kg) shown in parentheses and duration stated in days (d). Abbreviations: DOX (doxycycline), qd (once daily).

[2] = test system: Wolbachia in adult Brugia malayi; experiment: Adult Brugia malayi mouse model, Wolbachia wsp qPCR; assay type: in vivo, BALB/c CCR3−/− mice
Excerpt: In an adult Brugia malayi mouse model treatment groups (BALB/c CCR3−/−mice, 6-8 week old) received compounds by oral delivery for 7-28 days beginning at 6-10 weeks post-infection intraperitoneal with Brugia malayi third-stage larvae. Following treatment, at 12 weeks post-infection, adult worms and released microfilariae were recovered from the peritoneal cavity, counted and staged for sex. Genomic DNA was extracted from individual adult worms (10/group) and quantification of the Wolbachia surface protein (wBm-wsp) performed by quantitative PCR.
Treatment dose (mg/kg/day) shown in parentheses and duration stated in days (d). MIN (minocycline), bid (twice daily), qd (once daily). Data in Table 4 are expressed as a reduction in Wolbachia load in comparison to the vehicle control group.
Treatment dose (mg/kg/day) shown in parentheses and duration stated in days (d). MIN (minocycline), bid (twice daily), qd (once daily).

[3] = test system: Wolbachia pipientis (Wolbachia strain wAlbB) in C6/36 Aedes albopictus cell line; experiment: In vitro anti-Wolbachia cell-based screening assay; conditions: Table 1A, anti-Wolbachia activity, 7 days incubation
Protocol: A C6/36 Aedes albopictus cell line infected with Wolbachia pipientis (Wolbachia strain wAlbB) derived from Aa23 A. albopictus cell line (O'Neill et al., 1997; Insect Mol Biol; Turner et al., (2006) J. Immunol. 7:1240-1249) was used to screen compounds. Cells were cultured in Leibovitz's L15 +L-glutamine supplemented with heat-inactivated Foetal Calf Serum (HI-FCS), non-essential amino acids and tryptose phosphate broth. Culture medium was filter-sterilized through a 0.2 μm filter and stored at 4° C. Compounds were provided as 10 mM stocks in DMSO, diluted to 50 μM working stock to give final concentration of 5 μM on the test plate. Concentrated stocks were frozen at −20° C.
Prior to use in the screening assay, cell cultures were sub-passaged (6 days prior) to provide ˜90% confluent cells on Day 0 of screening assay. On Day 0 (assay set-up), the medium was removed from the stock culture flask and replaced with fresh medium. The cells were detached by scraping and cell density was calculated using an automated cell counter. The cells were then diluted at working density and aliquoted at 90 μl to each well of a Cell Carrier 384 well plate (Perkin Elmer). Cell plates were incubated at 26° C.
Control solution (DMSO-medium) was dispensed at 10 μl per well for “untreated” wells. Test solution (Drug-DMSO) was also dispensed at 10 μl (from working plate) per well for “treated” wells. The plates were incubated at 26° C., inside plastic wallet in incubator, for 7 days.
On Day 7, 25 μl of staining medium/dye (SYTO 11, Life Technologies) was added to each sample well and allowed to stain for 15 minutes in the dark. All the medium was removed from each sample well without disturbing the cells and replaced with 100 μl of fresh medium. Plates were imaged on the Operetta High Content Imaging system (Perkin Elmer) and analyzed using texture analysis through Harmony software (Perkin Elmer). The cell-based screen and analysis are described in detail in Clare et al. (2014) J Biomol Screen.

[4] = test system: Wolbachia in Litomosoides sigmodontis larvae; experiment: Larval Litomosoides sigmodontis mouse model, Wolbachia ftsZ qPCR; assay type: in vivo, BALB/c mice; conditions: vs vehicle control
Protocol: In this mouse model of filariasis (Hoerauf A, et al. (1999) Journal of Clinical Investigation 103(1):11-18), BALB/c mice (6-8 week old) were infected via natural larvae transmission, through the bite of infected tropical mites (Ornithonyssus bacoti), and treatment started on the day following infection. Anti-Wolbachia efficacy was measured by quantitative PCR analysis, using genomic DNA extracted from larvae, of the Wolbachia ftsZ gene, and expressed as a reduction in Wolbachia load in comparison to the vehicle control group. […] Thus, tylosin A effectively cleared Wolbachia from filarial larvae (Litomosoides sigmodontis) in a mouse model of filariasis when delivered parenterally (intraperitoneally), to a similar extent to doxycycline, with a shorter dosing regimen.

[5] = test system: Wolbachia in adult Brugia malayi; experiment: Adult Brugia malayi jird model, Wolbachia load; assay type: in vivo, Mongolian jirds (Meriones unguiculatus); conditions: Table 6; 200 mg/kg qd oral 21 d; vs median vehicle control
Protocol: (§1) In this model of adult filarial (macrofilariae) infection, Mongolian jirds (Meriones unguiculatus) were infected intraperitoneally with Brugia malayi third-stage larvae (Ash and Riley, (1970) J Parasitol. 56(5):969-73). Infected jirds were treated at +12-20 weeks post-infection for periods up to 6 weeks. Jirds were necropsied for worm recoveries. Adult worms were staged for sex and motile released microfilariae were counted. Genomic DNA was extracted from individual worms (10/group) and quantification of the Wolbachia surface protein (wBm-wsp) and Brugia malayi glutathione S-transferase (Bm-gst) gene copy numbers performed by quantitative PCR, and expressed as a reduction in Wolbachia load in comparison to the vehicle control group.
(§2) Treatment dose (mg/kg/day) shown in parentheses and duration stated in days (d). DOX (doxycycline), qd (once daily).

[6] = test system: Brugia malayi microfilariae; experiment: Adult Brugia malayi jird model, motile peritoneal microfilariae load; assay type: in vivo, Mongolian jirds (Meriones unguiculatus); conditions: Table 7, 200 mg/kg qd oral 21 d
Protocol: as §1, §2

[7] = test system: Wolbachia in adult male Onchocerca ochengi; experiment: Adult Onchocerca ochengi mouse model, Wolbachia:gst qPCR; assay type: in vivo, CB.17 SCID (BALB/c congenic) mice; conditions: Table 8; 25 mg/kg bid oral 28 d; vs median vehicle control
Protocol: In this model, adult male Onchocerca ochengi (closest relative species to the human parasite causing river blindness, Onchocerca volvulus) are derived from cattle natural hosts and surgically implanted into the peritoneal cavity of CB.17 SCID (BALB/c congenic) mice under anaesthesia (Halliday et al Parasit. Vectors 2014 7:472). After 3 days following surgery, mice were treated by oral gavage for periods up to 4 weeks. Mice were necropsied for worm recoveries 6 weeks after start of treatment. Genomic DNA was extracted from individual worms (n=10/group) and quantification of the Wolbachia surface protein (wBm-wsp) and Onchocerca glutathione S-transferase (Ov-gst) gene copy numbers performed by quantitative PCR. Data is expressed as a reduction in Wolbachia:gst ratios in comparison to the vehicle control group.
Treatment dose (mg/kg/day) shown in parentheses and duration stated in days (d). DOX (doxycycline), qd (once daily) bid (twice daily).

Loa loa microfilariae = Loa loa microfilariae ex vivo counter-screen; assay type: cell-based; conditions: for Motility (mean % vs baseline) / Survival (%): 64 μg/ml
Excerpt: This ex vivo assay is used to assess direct Loa loa microfilaricidal effects of drug compounds. Bloodborne Loa loa microfilariae are generated from experimental infections of splenectomised baboons with the human stain of L. loa (Orihel et al, Trop Med Parasitol, 1985. 36: p.215). L. loa microfilariae were purified from venous blood samples by Percoll gradient centrifugation. Loa loa microfilariae were adjusted to a density of 0.5×10^4/ml and plated into 96-well plates in Dulbecco's Modified Eagle Medium (DMEM) containing 10% Foetal Calf Serum (FCS). Triplicate wells of Loa loa microfilariae were exposed to either ivermectin (64 μg/ml: positive control), compound 10 (0.018 and 0.18 μg/ml), compound 19 (0.11 and 1.11 μg/ml) or 0.1% DMSO vehicle control. Dose levels of compound 10 and compound 19 were matched to predictive Cmax and 10× Cmax human plasma concentrations based on PK-PD modeling. L. loa were cultured at 37° C./5% CO2 for +7 days and monitored daily with a semi-quantitative score applied to individual mf motility.

[8] = Table 2, 50 mg/kg qd PO 14 d, 50 mg/kg

CC[C@H]1OC(=O)C[C@@H](O)[C@H](C)[C@@H](O[C@@H]2O[C@H](C)[C@@H](O[C@H]3C[C@@](C)(O)[C@@H](O)[C@H](C)O3)[C@H](N(C)C)[C@H]2O)[C@@H](CC=O)C[C@@H](C)C(=O)/C=C/C(C)=C/[C@@H]1CO[C@@H]1O[C@H](C)[C@@H](O)[C@@H](OC)[C@H]1OC [Tylosin A, 2-((4R,5S,6S,7R,9R,11E,13E,15R,16R)-6-(((2R,3R,4R,5S,6R)-5-(((2S,4R,5S,6S)-4,5-dihydroxy-4,6-dimethyltetrahydro-2H-pyran-2-yl)oxy)-4-(dimethylamino)-3-hydroxy-6-methyltetrahydro-2H-pyran-2-yl)oxy)-16-ethyl-4-hydroxy-15-((((2R,3R,4R,5R,6R)-5-hydroxy-3,4-dimethoxy-6-methyltetrahydro-2H-pyran-2-yl)oxy)methyl)-5,9,13-trimethyl-2,10-dioxooxacyclohexadeca-11,13-dien-7-yl)acetaldehyde]
% Wolbachia reduction ([1]; Table 2, 50 mg/kg qd IP 14 d, 50 mg/kg): 99.9%
% Wolbachia reduction ([1]; Table 2, 50 mg/kg qd IP 14 d, listed as TYL A, 50 mg/kg): 99.9%
% Wolbachia reduction [1, 8]: 50.4%
% Wolbachia reduction ([1]; Table 2, 50 mg/kg qd PO 14 d, listed as TYL A, 50 mg/kg): 50.4%
% Wolbachia reduction ([2]; Table 4, 50 mg/kg qd oral 14 d, vs median vehicle control): 0%
EC50 ([3]; C6/36, 168 h): 36 nM
EC50 [3]: 24 nM and 26 nM
Wolbachia reduction ([4]; 7 days treatment, oral dosing): 21.9%
Wolbachia reduction ([4]; 7 days treatment, parenteral (intraperitoneal) dosing): 91.7%

CC[C@H]1OC(=O)C[C@@H](O)[C@H](C)[C@@H](O[C@@H]2O[C@H](C)[C@@H](O)[C@H](N(C)C)[C@H]2O)[C@@H](CC=O)C[C@@H](C)C(=O)/C=C/C(C)=C/[C@@H]1CO[C@@H]1O[C@H](C)[C@@H](O)[C@@H](OC)[C@H]1OC [Tylosin B, desmycosin]
EC50 [3]: 88 nM

C[C@H]1c2cccc(O)c2C(=O)C2=C(O)[C@]3(O)C(=O)C(C(N)=O)=C(O)[C@@H](N(C)C)[C@@H]3[C@@H](O)[C@@H]21 [doxycycline]
% Wolbachia reduction ([1]; Table 2, 50 mg/kg qd PO 7 d): 88.7%
% Wolbachia reduction [1, 8]: 98.3%
% Wolbachia reduction ([1]; Table 2, 50 mg/kg qd PO 14 d, listed as DOX, 50 mg/kg): 98.3%
% Wolbachia reduction ([1]; Table 3, 50 mg/kg qd oral 7 d, 50 mg/kg): 77.4%
% Wolbachia reduction ([1]; Table 3, 50 mg/kg qd oral 7 d, listed as DOX, 50 mg/kg): 77.4%
% Wolbachia reduction ([1]; Table 3, 50 mg/kg qd oral 14 d, 50 mg/kg): 99.3%
% Wolbachia reduction ([1]; Table 3, 50 mg/kg qd oral 14 d, listed as DOX, 50 mg/kg): 99.3%
% Wolbachia reduction [5]: 99.1%
% reduction in microfilariae [6]: 90.5%
% Wolbachia reduction [7]: 99.8%
Wolbachia reduction ([4]; 50 mg/kg/day for 14 days): 99.9%

CN(C)c1ccc(O)c2c1C[C@H]1C[C@H]3[C@H](N(C)C)C(O)=C(C(N)=O)C(=O)[C@@]3(O)C(O)=C1C2=O [minocycline]
% Wolbachia reduction ([2]; Table 4, 25 mg/kg bid oral 28 d, vs median vehicle control, 25 mg/kg): 83.8%
% Wolbachia reduction ([2]; Table 4, 25 mg/kg bid oral 28 d, vs median vehicle control, listed as MIN, 25 mg/kg): 83.8%
% Wolbachia reduction ([2]; Table 5 dose escalation study, 25 mg/kg bid oral 28 d): 95.5%
% Wolbachia reduction [7]: 99.7%

ivermectin
Motility (mean % vs baseline) (Loa loa microfilariae; exposure time 2 days): 5.71%
Survival (%) (Loa loa microfilariae; exposure time 2 days): 100%
Motility (mean % vs baseline) (Loa loa microfilariae; exposure time 7 days): 0%
Survival (%) (Loa loa microfilariae; exposure time 7 days): 0%
Effect on Loa loa microfilariae motility (in words) (Loa loa microfilariae; ex vivo culture, period of 7 days): completely immotile
Reduction in motility (Loa loa microfilariae; in +2 days): > 90%
